Data published in US20040142961A1, “Utilization of substituted imidazo[1,2-a]-pyridine compounds in pharmaceutical formulations” (priority 2001, published 2004).

Molecular target: T1, nitric oxide synthase (Rattus norvegicus, UniProt P29476)
T1 construct: the supernatant was then decanted and frozen in portions; from tissue; host or cells: rat cerebellum, homogenate supernatant after 20,000 g
Experiment: HTS NO synthase assay
Type: biochemical
Settings: 10 μM test compound; enzyme from rat cerebellum; [3H]arginine substrate; read-out: Inhibition of nitric oxide synthase (10 μM) in per cent
Description: This assay allows the determination of the percentage inhibition of NO synthase by a compound of formula I employed according to the invention by measuring the NO synthase activity under the action of the compound. In this procedure, NO synthase is mixed together with radioactively labelled arginine and the particular compound of formula I under suitable conditions. After interruption of the NO formation reaction at a given point in time, the amount of unreacted arginine is determined directly or indirectly. Comparison of this amount with the amount of arginine remaining from the mixture of NO synthase and arginine free of the test compound of formula I and under otherwise identical conditions gives the percentage inhibition of NO synthase by the test compound. This assay can be carried out as follows:
(a) incubation of NO synthase with labelled arginine as the substrate in a reaction vessel,
(b) separation of the labelled arginine from labelled citrulline formed as the product of the enzymatic reaction at a point in time at which the concentration of citrulline is increasing, and
(c) measurement of the amount of arginine separated in each case.
The separation is carried out through a filter plate membrane.
In this HTS NO synthase assay, radioactive arginine is used as the substrate. The assay volume can be chosen in the range between 25 μl and 250 μl, depending on the nature of the microtiter plate (MTP). Cofactors and coenzymes are added, depending on the enzyme source used. The incubation of the batches in this microtiter plate (assay MTP) according to step (a) is carried out at room temperature for between 5 and 60 minutes, depending on the enzyme activity (units) used. At the end of the incubation (step (a)), the plate is placed in a cell harvester equipped with an MTP which has a cation exchanger membrane as the filter base (filter MTP). All the batches of the assay MTP are transferred into this filter MTP and filtered with suction over a cation exchanger filter plate, i.e., a filter paper loaded with phosphate groups. The filter MTP is then washed with buffer or water. Using this procedure, the arginine substrate which remains is bound to the cation exchanger, while the radioactive citrulline formed enzymatically is washed out quantitatively. After drying of the filter MTP and addition of scintillation liquid, the bound arginine can be counted on a scintillation counter. An NO synthase reaction which has not been inhibited is reflected in a low radioactivity. An inhibited enzyme reaction means that the radioactive arginine has not been reacted. That is to say, a high radioactivity is found on the filter. […]
The plate was then dried for 1 hour at 60° C. in a drying cabinet. […] After a waiting time of 1 hour, the plate was measured on a β-counter.

| Compound | inhibition at 10 µM [%] |
| --- | --- |
| COc1ccc(-c2cn3ccc(C)cc3n2)cc1 [Example 1, 2-(4-Methoxy-phenyl)-7-methyl-imidazo[1,2-a]pyridine] | 39 |
| Cc1ccn2cc(C)nc2c1 [Example 2, 2,7-Dimethyl-imidazo[1,2-a]pyridine] | 68 |
| Cc1ccn2ccnc2c1 [Example 3, 7-Methyl-imidazo[1,2-a]pyridine] | 53 |
| Cc1ccn2cc(C(C)(C)C)nc2c1 [Example 4, 2-tert-Butyl-7-methyl-imidazo[1,2-a]pyridine] | 89 |
